Results from patent US20180051221A1, “UNLEADED GASOLINE FORMULATIONS FOR PISTON ENGINES” (Swift Fuels, LLC, priority 2014, published 2018).
Where two headings read alike, the source gives them in different places.

Assays:
[1] = Solubility / physical state remarks on aromatic amines as avgas components; format: physicochemical; conditions: remark on solubility above 6% or solid state at RT; b32 calls these solubility problems
[2] = Octane enhancement by aromatic amines blended into aviation gasoline (compared to baseline avgas); conditions: for Octane @ 6%*: amine at 6% in aviation gasoline; for Octane @ 9%*: amine at 9% in aviation gasoline
rat = conditions: cited from earlier work
[3] = occupational exposure limit, estimated; cited from earlier work
[4] = cited from earlier work; for OSHA Hazards: public MSDS / OSHA data
[5] = within 10 days; cited from earlier work
[6] = oral, MSDS data from Sigma-Aldrich, et al.

| SMILES | Octane @ 6%* [2] | Octane @ 9%* [2] | further results |
| --- | --- | --- | --- |
| Nc1cc(F)c(F)c(F)c1F [2,3,4,5-tetrafluorophenylamine] | 1.70 | 2.50 | Other [1]: solid@RT |
| Nc1ccccc1Cl [2-chlorophenylamine] | 4.50 | 5.60 |  |
| Cc1ccc(N)c(F)c1 [2-fluoro-4-metylphenylamine] | 4.00 | 5.10 |  |
| Cc1ccc(F)c(N)c1 [2-fluoro-5-metylphenylamine] | 3.60 | 5.10 |  |
| Nc1ccccc1F [2-fluorophenylamine] | 4.20 | 7.30 |  |
| Cc1ccccc1N [2-methylphenylamine] | 1.70 | 2.10 |  |
| Cc1ccc(N)cc1C [3,4-dimethylphenylamine] | 5.60 |  |  |
| Cc1cc(C)cc(N)c1 [3,5-dimethylphenylamine] | 5.70 | 8.70 |  |
| Nc1cccc(Cl)c1 [3-chlorophenylamine] | 3.60 |  |  |
| CCc1cccc(N)c1 [3-ethylphenylamine] | 3.80 | 6.60 |  |
| Cc1c(N)cccc1F [3-fluoro-2-metylphenylamine] | 1.30 | 2.70 |  |
| Nc1cccc(F)c1 [3-fluorophenylamine] | 4.20 | 6.70 |  |
| Cc1cccc(N)c1 [3-methylphenylamine] | 5.40 | 7.40 | LD50 (rat, oral) (rat; in vivo, po): 450 mg/kg |
| CCc1ccc(N)cc1 [4-ethylphenylamine] | 3.80 | 6.30 |  |
| Cc1cc(F)ccc1N [4-fluoro-2-metylphenylamine] | 1.60 | 2.10 |  |
| Nc1ccc(F)cc1 [4-fluorophenylamine] | 4.20 | 7.50 |  |
| Cc1ccc(N)cc1 [4-methylphenylamine] | 6.10 |  |  |
| CC(C)(C)c1ccc(N)cc1 [4-t-butylphenylamine] | 4.20 | 6.60 |  |
| Cc1ccc(F)cc1N [5-fluoro-2-metylphenylamine] | 1.60 | 2.10 |  |
| c1ccccc1 [Benzene] |  |  | LD50 (rat, oral) (rat; in vivo, po): 2,990 mg/kg |
| CC(C)c1ccc(N)cc1 [Cumidine, 4-isopropylaniline] | 4.40 | 7.20 | TWA [3]: ~2 ppm; classification as mutagen or carcinogen ([4]; MSDS No. 818472, EMD Millipore): not classified as a mutagen or carcinogen; LD50 (rat, oral) (rat; oral, MSDS No. 818472, EMD Millipore): 757 mg/kg; LD50 (rat, oral) (rat; [6]): 757 mg/kg; biodegradable [5]: 88% |
| CCOC(C)(C)C [ETBE, ethyl tert-butyl ether] |  |  | OSHA Hazards [4]: Irritant; LD50 (rat, oral) (rat; [6]): 5,000 mg/kg |
| Cc1cc(C)cc(C)c1 [Mesitylene] |  |  | LD50 (rat, oral) (rat; [6]): 5,000 mg/kg |
| CCNc1ccccc1 [N-ethylphenylamine] | −2.50 |  |  |
| CNc1ccc(F)cc1 [N-methyl-4-fluorophenylamine] | 2.50 | 2.60 |  |
| CNc1ccccc1 [N-methylphenylamine] | 2.10 | 2.60 |  |
| C[CH2][Pb]([CH2]C)([CH2]C)[CH2]C [TEL, Tetraethyl lead] |  |  | LD50 (rat, oral) (rat; [6]): 14 mg/kg |
| Cc1ccccc1 [Toluene] |  |  | LD50 (rat, oral) (rat; [6]): 5,000 mg/kg |
| Nc1ccccc1 [phenylamine] | 5.70 | 8.70 | OSHA Hazards ([4]; listed as aniline): irritant; LD50 (rat, oral) (rat; in vivo, po): 250 mg/kg |
